Data on two molecules can be found in paper PMC4294381, “Metformin repositioning as antitumoral agent: selective antiproliferative effects in human glioblastoma stem cells, via inhibition of CLIC1-mediated ion current” (Oncotarget, 2014).

Holding throughout (type): cell-based
Test [1] has as its target T1, chloride intracellular channel-1 (CLIC1) (Homo sapiens, UniProt O00299, R29A).
T1 construct: FLAG-tagged CLIC1 R29A expressed in CHO cells
The test is described as follows: whole-cell patch clamp in transfected CHO cells. A general note: Patch clamp records ionic current or voltage across a cell membrane.

For test [2], the target named is T2, chloride intracellular channel-1 (CLIC1) (Homo sapiens, UniProt O00299). The test can be described thus: whole-cell patch clamp in transfected CHO cells. Also noted: FLAG-tagged CLIC1-wt expressed in CHO cells.
Test [3] has as its target T3, chloride intracellular channel-1 (CLIC1) (Homo sapiens, UniProt O00299, K37A).
T3 construct: FLAG-tagged CLIC1 K37A expressed in CHO cells
The test is described as follows: whole-cell patch clamp in transfected CHO cells, metformin […].

Test [4] deals with T2, chloride intracellular channel-1 (CLIC1). The test is described as follows: patch clamp, whole-cell (U87, GBM CSC, CHO expressing human CLIC1) and outside-out single channel.

One may read the EC50 as the midpoint of the concentration-response curve. High values mean weaker potency, low ones greater potency. Take `CC1(C2CCCC2)Cc2cc(OCC(=O)O)c(Cl)c(Cl)c2C1=O` (stereo not shown) [IAA94]: the EC50 in test [1] amounted to 29.2 µM; in test [2], 27.3 µM.
Take `CN(C)C(=N)N=C(N)N` [Metformin]: the “whole-cell patch clamp in transfected CHO cells, metformin 10 mM” value in test [3] was “Metformin significantly inhibited membrane current in CLIC1 wt and K37A-transfected cells (Fig. 7A and D)”. This molecule also yielded an EC50 in test [4] of 2100 µM.
